In PMC9592910, “Tissue distribution and integrated pharmacokinetic properties of major effective constituents of oral Gegen-Qinlian decoction in mice” (Frontiers in Pharmacology, 2022):
Marks after values point to notes of the source that are not given here.

Columns and labels:
[1] = Pharmacokinetics/tissue distribution of GQD constituents in the colons of mice after oral GQD; format: in vivo, Kunming mice
Description: (§1) The liver and the colon homogenates were prepared with 10 times (V: W) the volume of ascorbic acid solution (200 μg/ml). Then the homogenates were pretreated as plasma to obtain the tissue samples for LC-MS/MS analysis. Fifty-four Kunming mice were randomly divided into nine groups according to body weight and gender (3 male and three female in each group). […] Then the C-T curves of the constituents in the plasma and the tissue homogenates were respectively drawn and their pharmacokinetic parameters were respectively calculated. […] It should be noted that the pharmacokinetic parameters of a GQD constituent was calculated based on its average concentration in six mice at each time point. The results were expressed as mean ± SD.

[2] = system: dextran sodium sulfate-induced ulcerative colitis model mice; design: method as in Dong et al., 2022; conditions: oral 40 mg/kg for 7 days, DSS-induced ulcerative colitis model mice; ref Dong et al., 2022; cited from earlier work
[3] = Pharmacokinetics of GQD constituents in the portal vein of mice after oral GQD; format: in vivo, Kunming mice; conditions: for AUC(0-t): read-out: AUC0–24 h
Description: (§2) Fifty-four Kunming mice were randomly divided into nine groups according to body weight and gender (3 male and three female in each group). Each group was orally administered with water solution (0.2 ml/10 g body weight) of the GQD extract powder at the dosage of 6.1 g/kg body weight. The dosage of GQD extract powder equals to 18 g/kg herbal pieces of GQD, which is equivalent to its clinical dosage. At each designed time point (0.08, 0.25, 0.5, 1, 2, 4, 8, 12, and 24 h) after oral administration, six mice were anesthetized with ether, and blood was collected from the portal vein (about 0.2 ml, aspirated in a 1 ml heparinized syringe) and then the systemic circulation (about 0.2 ml, collected in heparinized tubes after removal of the eyeball) of the mice to prepare plasma samples, and the livers and the colons were removed to prepare respective homogenate. After pretreatment, the concentrations of 19 major constituents of GQD in each sample were measured by the validated LC-MS/MS method (see “2.3”). Then the C-T curves of the constituents in the plasma and the tissue homogenates were respectively drawn and their pharmacokinetic parameters were respectively calculated.
(§3) It should be noted that the pharmacokinetic parameters of a GQD constituent was calculated based on its average concentration in six mice at each time point. The results were expressed as mean ± SD.

[4] = Pharmacokinetics of GQD constituents in the systemic circulation of mice after oral GQD; format: in vivo, Kunming mice; conditions: for AUC(0-t): read-out: AUC0–24 h
Description: as §2, §3

[5] = Pharmacokinetics/tissue distribution of GQD constituents in the livers of mice after oral GQD; format: in vivo, Kunming mice; conditions: for Kp: both sexes
Description: as §1

[6] = design: method as in Zhai et al., 2020; conditions: at 10 μM; ref Zhai et al., 2020; cited from earlier work
[7] = system: rats with irritable bowel syndrome; design: method as in Wang et al., 2021; conditions: oral 6–24 mg/kg, ref Wang et al., 2021; cited from earlier work
[8] = system: dextran sodium sulfate-induced colitis; design: method as in Jeon et al., 2020; conditions: oral 10 or 50 mg/kg; ref Jeon et al., 2020; cited from earlier work
[9] = both, Kunming, mouse, colon (homogenate), po, […], colon, mice, oral GQD extract […], read-out: T1/2 (converted)
[10] = both, Kunming, mouse, colon (homogenate), colon, mice, oral GQD extract 6.1 g/kg
[11] = both, Kunming, mouse, colon (homogenate), colon, mice, oral GQD extract 6.1 g/kg, read-out: Tmax
[12] = both, Kunming, mouse, portal vein plasma, po, […], portal vein plasma, mice, oral GQD extract […], read-out: Tmax
[13] = both, Kunming, mouse, portal vein plasma, mice, oral GQD extract 6.1 g/kg
[14] = both, Kunming, mouse, portal vein plasma, mice, oral GQD extract 6.1 g/kg, read-out: T1/2 (converted)
[15] = both, Kunming, mouse, systemic circulation plasma, po, […], systemic circulation plasma, mice, oral GQD […], read-out: T1/2 (converted)
[16] = both, Kunming, mouse, systemic circulation plasma, po, […], systemic circulation plasma, mice, oral GQD […], read-out: Tmax
[17] = both, Kunming, mouse, systemic circulation plasma, mice, oral GQD 6.1 g/kg
[18] = systemic circulation plasma, mice, oral GQD […]
[19] = both, Kunming, mouse, liver (homogenate), po, […], liver, mice, oral GQD extract […], read-out: T1/2 (converted)
[20] = both, Kunming, mouse, liver (homogenate), liver, mice, oral GQD extract 6.1 g/kg
[21] = both, Kunming, mouse, liver (homogenate), liver, mice, oral GQD extract 6.1 g/kg, read-out: Tmax
[22] = liver, mice, oral GQD extract […]
[23] = both, Kunming, mouse, in vivo, colon, mice, oral GQD extract 6.1 g/kg
[24] = both, Kunming, mouse, in vivo, portal vein plasma, mice, oral GQD extract 6.1 g/kg
[25] = both, Kunming, mouse, in vivo, systemic circulation plasma, mice, oral GQD 6.1 g/kg
[26] = both, Kunming, mouse, in vivo, liver, mice, oral GQD extract 6.1 g/kg
[27] = colon, mice, oral GQD extract […]
[28] = both, Kunming, mouse, in vivo, po, […]
[29] = both, Kunming, mouse, in vivo, po, […], T1/2
[30] = both, Kunming, mouse, in vivo, po, […], Tmax
[31] = portal vein plasma, mice, oral GQD extract […]

| half-life [1, 9] [h] | Cmax [1, 10] [ng/g] | MRT [1, 10] [h] | Tmax [1, 11] [h] | Tmax [3, 12] [h] | Cmax [3, 13] [ng/mL] | MRT [3, 13] [h] | AUC(0-t) [3, 13] [ng·h/mL] | half-life [3, 14] [h] | half-life [4, 15] [h] | Tmax [4, 16] [h] | Cmax [4, 17] [ng/mL] | MRT [4, 17] [h] | AUC(0-t) [4, 17] [ng·h/mL] | half-life [5, 19] [h] | Cmax [5, 20] [ng/g] | MRT [5, 20] [h] | Tmax [5, 21] [h] | T1/2 [5, 22] | Compound | T1/2 [1, 27] [h] | other results |
| --- | --- | --- | --- | --- | --- | --- | --- | --- | --- | --- | --- | --- | --- | --- | --- | --- | --- | --- | --- | --- | --- |
| 3.5 | 6230 | 6 | 4 | 4 | 191 | 5.5 | 1420 | 8 | ~6 | 1 | 85.4 | 5.4 | 419 | ~10 | 427 | 8.3 | 4 | 10.1# h | COc1ccc2cc3[n+](cc2c1OC)CCc1cc2c(cc1-3)OCO2 [Berberine, berberine] |  | effect on intestinal mucosal barrier function and inflammatory reaction [2]: significantly improved intestinal mucosal barrier function; T1/2 [4, 18]: 5.3 h; anti-inflammatory effect [6]: significant anti-inflammatory effect |
| 2.1 | 2150 | 5 | 4 | 0.25 | 38.3 | 2.6 | 161 | 1.2 | 1.9 | 0.5 | 22.4 | 2.6 | 94.9 | 5.3 | 53.4 | 5.3 | 0.25 |  | COc1ccc2c(c1O)-c1c(O)c(OC)cc3c1[C@H](C2)[N+](C)(C)CC3 [Magnoflorine, magnoflorine] |  |  |
| 2 to 3 | 535 | 6.1 | 4 | 2 | 1220 | 3.3 | 4510 | 1 | 1.5 | 2 | 64.7 | 3.6 | 300 | 2 to 3 | 839 | 5 | 4 | 2.6 h | COc1c(O)cc(O)c2c(=O)cc(-c3ccccc3)oc12 [Wogonin, wogonin] | 3.2 |  |

The next lines start with the compound.

| Compound | half-life [1, 9] [h] | Cmax [1, 10] [ng/g] | MRT [1, 10] [h] | Tmax [1, 11] [h] | Tmax [3, 12] [h] | Cmax [3, 13] [ng/mL] | MRT [3, 13] [h] | AUC(0-t) [3, 13] [ng·h/mL] | half-life [3, 14] [h] | half-life [4, 15] [h] | Tmax [4, 16] [h] | Cmax [4, 17] [ng/mL] | MRT [4, 17] [h] | AUC(0-t) [4, 17] [ng·h/mL] | half-life [5, 19] [h] | Cmax [5, 20] [ng/g] | MRT [5, 20] [h] | Tmax [5, 21] [h] | T1/2 [5, 22] | T1/2 [1, 27] [h] | other results |
| --- | --- | --- | --- | --- | --- | --- | --- | --- | --- | --- | --- | --- | --- | --- | --- | --- | --- | --- | --- | --- | --- |
| O=c1c(-c2ccc(O)cc2)coc2cc(O[C@@H]3O[C@H](CO)[C@@H](O)[C@H](O)[C@H]3O)ccc12 [Daidzin, daidzin] |  |  |  |  |  |  |  |  |  |  |  |  |  |  |  |  |  |  |  |  | Cmax [1, 23]: 114 ng/g; MRT [1, 23]: 9.9 h; half-life ([1]; both, Kunming, mouse, in vivo, colon, mice, oral GQD extract 6.1 g/kg, read-out: T1/2 (converted)): 11 h; Tmax ([1]; both, Kunming, mouse, in vivo, colon, mice, oral GQD extract 6.1 g/kg, read-out: Tmax): 1 h; Cmax [3, 24]: 76.9 ng/mL; MRT [3, 24]: 2 h; AUC(0-t) [3, 24]: 151 ng·h/mL; half-life ([3]; both, Kunming, mouse, in vivo, portal vein plasma, mice, oral GQD extract 6.1 g/kg, read-out: T1/2 (converted)): 1.8 h; Tmax ([3]; both, Kunming, mouse, in vivo, portal vein plasma, mice, oral GQD extract 6.1 g/kg, read-out: Tmax): 0.25 h; Cmax [4, 25]: 49 ng/mL; MRT [4, 25]: 1.8 h; AUC(0-t) [4, 25]: 85.7 ng·h/mL; half-life ([4]; both, Kunming, mouse, in vivo, systemic circulation plasma, mice, oral GQD 6.1 g/kg, read-out: T1/2 (converted)): 1.8 h; Tmax ([4]; both, Kunming, mouse, in vivo, systemic circulation plasma, mice, oral GQD 6.1 g/kg, read-out: Tmax): 0.25 h; Cmax [5, 26]: 54.1 ng/g; MRT [5, 26]: 3.6 h; half-life ([5]; both, Kunming, mouse, in vivo, liver, mice, oral GQD extract 6.1 g/kg, read-out: T1/2 (converted)): 3.4 h; Tmax ([5]; both, Kunming, mouse, in vivo, liver, mice, oral GQD extract 6.1 g/kg, read-out: Tmax): 0.5 h |
| CC1(C)[C@@H](O)CC[C@]2(C)[C@H]3C(=O)C=C4[C@@H]5C[C@@](C)(C(=O)O)CC[C@]5(C)CC[C@@]4(C)[C@]3(C)CC[C@@H]12 [Glycyrrhetinic acid, glycyrrhetinic acid] | 4 to 5 | 1830 | 7 | 4 | 4 | 643 | 7 | 5330 | 4.7 | ~6 | 4 | 196 | 8.4 | 2120 | 6 to 7 | 910 | 8.6 | 4 | 6.6# h | 4.4 | T1/2 [4, 18]: 6.2# h |
| COc1cc2c(cc1O)CC[n+]1cc3c(OC)c(OC)ccc3cc1-2 [Jatrorrhizine, jatrorrhizine] | 5 | 2100 | 6.2 | 4 | 4 | 16.6 | 4.8 | 116 | 6.3 | 4.3 | 0.08 | 10.1 | 3.9 | 26.3 | 2.4 | 136 | 6.6 | 4 |  |  |  |
| O=C1C[C@@H](c2ccc(O[C@@H]3O[C@H](CO)[C@@H](O)[C@H](O)[C@H]3O)cc2)Oc2cc(O)ccc21 [Liquiritin, liquiritin] |  |  |  |  |  |  |  |  |  |  |  |  |  |  |  |  |  |  |  |  | Tmax [1, 28]: 0.5 h; half-life [1, 29]: 19.5 h; half-life [3, 28]: 2.5 h; Tmax [3, 30]: 0.25 h; half-life [4, 29]: 1.5 h; Tmax [4, 30]: 0.25 h; Kp ([5]; Kunming, mouse, in vivo, po, AUC0–24 h liv/AUC0–24 h cir): ~5; Kp ([5]; Kunming, mouse, in vivo, po, AUC0–24 h liv/AUC0–24 h por): 2.4; AUC0–24 h liv/AUC0–24 h cir ([5]; both, Kunming, mouse, in vivo, po): 5.1; Tmax [5, 28]: 4 h; half-life [5, 29]: 19.7 h |
| COc1cc2c(cc1OC)-c1cc3ccc(OC)c(OC)c3c[n+]1CC2 [Palmatine, palmatine] |  |  |  |  |  |  |  |  |  |  |  |  |  |  |  |  |  |  | 4.6 h | 3.8 | Tmax [1, 27]: 4.0 h; T1/2 [3, 31]: 3.0 h; Tmax [3, 31]: 4.0 h; T1/2 [4, 18]: 7.2 h; Tmax [4, 18]: 1.0 h; Tmax [5, 22]: 2.0 h |
| O=c1c(-c2ccc(O)cc2)coc2c([C@@H]3O[C@H](CO)[C@@H](O)[C@H](O)[C@H]3O)c(O)ccc12 [Puerarin, puerarin] | 1 to 4 | 61600 | 5.9 | 4 | 0.25 to 0.5 | 1990 | 3.2 | 6710 | 2.9 | 3.4 | 0.25 to 0.5 | 1580 | 3.3 | 5230 | 3 to 4 | 2870 | 3.8 | 0.5 | 4.0 h | 1.3 | effect on irritable bowel syndrome symptoms [7]: improved symptoms of rats with irritable bowel syndrome; effect on dextran sodium sulfate-induced colitis [8]: alleviated dextran sodium sulfate-induced colitis |
